Data as given in US9034876B2, “Treatment of chronic inflammation with a 1,2,4-triazolo [1,5a] pyridine derivative” (Cephalon, Inc., priority 2010, dated 2015).
Where two headings read alike, the source gives them in different places.

Assays:
pSTAT3 = assay: Activity against pSTAT3 (another experiment)
CIA model, body mass = assay type: in vivo, female DBA/1 mice
Protocol: FIGS. 9A and 9B: Depict the effect of treatment on body mass and serum anti-CII autoantibody concentration in a CIA model.
Female DBA/1 mice were injected with purified collagen type II in CFA i.d. (intradermal) then boosted with collagen type II in IFA s.c. (subcutaneous) on day 21 followed by a day 28 LPS injection i.p. (intraperitoneal) to induce arthritis (CIA). Mice that scored a ‘1’ or better for each paw were considered arthritic and entered into the study, treatments started after several days of full arthritis. Compound A was provided orally, b.i.d., for each dose tested; Dex was provided i.p. at 1.5 mg/kg three times a week; vehicle (PEG400+1% DMSO) was provided orally, b.i.d.

[1] = Compound quantification (PK) in plasma, paw and spleen of CAIA mice; assay type: in vivo; conditions: DBA/1, mouse, oral, day 20, mean±SEM, N=3; for concentration at 2 h: 2 hrs post-administration; for concentration at 6 h: 6 hrs post-administration
Protocol: FIG. 2B: Depicts the results of a PK (pharmacokinetic) study of Compound A, 55 mg/kg, 30 mg/kg and 10 mg/kg, p.o., s.i.d. (once daily), in the plasma, paw and spleen of treated mice, N=3 mice per group tested. The data shown in the figure represents the mean±SEM (standard error of the mean).
While the level of Compound A in the target tissue, i.e., the paw, was relatively low, the levels of Compound A were relatively constant between the two time points for the 55 mg/kg treatment group. […] The data (mean±SEM, N=3) represented in FIG. 2B is tabulated below:
Plasma and protein extraction from paw and spleen samples were submitted for quantitative analysis to determine the respective compound concentrations. Blood samples were collected into heparinized tubes and placed on wet ice until centrifuged (16,000×g, 5 minutes) to separate the plasma. Supernatant was collected and stored at −20° C. pending analysis. At the time of analysis, two volumes of cold acetonitrile containing an internal standard (alprenolol) were added to each sample which were then vortexed and centrifuged. The supernatants were removed, placed into an auto-sampler vial and the amount of compound present in the samples was analyzed by liquid chromatograph/mass spectrometry (LC-MS-MS). The concentration of compound in the samples was quantified against a mouse plasma standard curve made via serial dilution in a concentration range from 5 to 20,000 ng/mL. Samples containing concentrations greater than 10% above the top of the standard curve were diluted 1:10 with acetonitrile. The limit of detection for plasma, paw and spleen were <10 ng/ml.

[2] = test system: pro-inflammatory cytokines in paw extracts; assay: CAIA model, paw cytokines (Luminex bead assay); assay type: in vivo, female DBA/1 mice
Protocol: DBA/1 female mice were injected i.v. with purified anti-collagen type II antibodies, then given 25 μg of LPS i.p. three days later to induce arthritis by day 5. Mice that met the arthritis criteria score of 1 per paw were entered into the study.
The cytokines were measured using known procedures [32].
(§1) Briefly, the front (including carpus) and back (including tarsus) right paws were collected and frozen in dry-ice cooled isopentane and stored at −80° C. until use. The paws were cut to 2 mm×2 mm segments and kept on dry-ice in round bottom polypropylene tubes. Seven hundred microliters tissue extraction buffer containing protease inhibitor cocktail (Calbiochem, San Diego, Calif.) and Halt phosphatase inhibitor cocktail (Thermo Scientific, Rockford, Ill.) or Roche phosphatase inhibitor cocktail (Roche, Indianapolis, Ind.) in tissue extraction reagent I (Invitrogen, Carlesbad, Calif.) were added to each sample. Samples were homogenized frozen using a PT 10-35 Polytron homogenizer. After homogenization, samples were centrifuged at 4° C. for 2000×g for 10 minutes and supernatants re-centrifuged at 4° C. at maximum speed, 14,000×g, for 15 minutes. Supernatants were carefully removed to avoid picking up the top layer of lipids/adipose debris. Protein concentration was measured using a BCA protein assay (Pierce, Rockford, Ill.) and adjusted to 3 mg/ml. A minimum of 25 μl of this extraction was used in the above described protocol using the mouse cytokine 10-plex bead kit (Invitrogen, Carlsbad, Calif.) or phosphorylated STAT1, 3, 5a/b, 3-plex kit (Invitrogen, Carlsbad, Calif.).

phospho-STAT3 = assay: CAIA model, paw phospho-STAT3 (Luminex bead assay); assay type: in vivo, female DBA/1 mice; conditions: for reduction in paw pSTAT3 compared with Dex: within 24 hours of treatment (day 6-7); for phospho-STAT3 levels in the paw: 55 mg/kg
Protocol: DBA/1 female mice were injected i.v. with purified anti-collagen type II antibodies, then given 25 μg of LPS i.p. three days later to induce arthritis by day 5. Mice that met the arthritis criteria score of 1 per paw were entered into the study. Compound A was provided orally, b.i.d., for all doses tested; Dex was provided at 1.5 mg/kg three times a week, i.p.; and vehicle (PEG400+1% DMSO) was provided orally.
The graphed data was generated using Luminex® bead kits, concentration in units per ml per 3 mg of total protein as determined by the BSA assay. The graphed data represents mean±SEM, statistics were performed using 2-way ANOVA analysis.
To investigate the effect of Compound A on levels of phosphorylated STATs and cytokines in the paws of treated mice, a method was developed whereby synovial fluid and cellular joint extracts could be obtained from the paws and ankles of diseased animals for analysis using multiplex bead arrays [32]. […] Consequently, multiplex analysis was used as the primary method of measuring phosphorylated STATs for all experiments described herein.
as §1

[3] = test system: collagen-induced arthritis (CIA); assay: CIA model, joint histopathology; assay type: in vivo, female DBA/1 mice
Protocol: Tissues were also stained with Safranin-O to detect matrix degeneration and this information was used for scoring. The data in the figure represents mean±SEM, statistics were performed using Prism® software and 2-way ANOVA analysis, *p<0.05, **p<0.01, ***p<0.001. H&E and safranin-O stained paraffin wax embedded carpus and tarsus sections were scored by a board certified, independent pathologist for the criteria described in the materials and methods. Tabulated data represent mean±SD values for the tarsus only. Statistics were performed using 2-way ANOVA analysis, *p<0.05; **p<0.01; ***p<0.001, N=5 mice per group tested. At the end of each experiment, front and hind paws (including carpus and tarsus) were removed from the body of the animal for histological analysis. Skin from the ends of the digits was removed and the metatarsal region skin perforated using surgical scissors to allow full decalcification. Samples followed a decalcification procedure using formic acid as described elsewhere [21, 22]. After 7-10 days of decalcification, samples were washed for 2 hours in distilled water and stored in 70% ethanol at 4° C. until ready to be processed. Samples were paraffin embedded, sectioned and stained with Hematoxylin and Eosin (H&E) stain, also Safranin-O for matrix degradation (images not shown, used by pathologist for scoring). All histology work was performed at the Wistar Institute (Philadelphia, Pa.). […] A total of five mice from each group were analyzed via histopathology, 10× representative images are shown for each group tested.

[4] = test system: CB11-specific, IFNγ secreting T cells; assay: CIA model, ex vivo IFNγ T-cell Elispot of splenocytes; assay type: in vivo, female DBA/1 mice; conditions: four weeks
Source text: FIG. 4D: Depicts IFNγ Elispot® results from stimulated splenocytes from treated mice challenged with collagen type II fragment (CB11), OVA or media alone. The Elispot images shown in the figure are representative of each treatment group and the bar graph represents data using four mice from each treatment group. Spots were counted using a C.T.L. Immunospot Elispot scanner and spot counting software.
For CIA experiments, Millipore nitrocellulose IP filter plates (Millipore, Billerica, Mass.) were coated with either anti-mouse IFNγ (AN18, MabTech, Mariemont, Ohio) or anti-mouse IL-4 (11B11, eBioscience, San Diego, Calif.) at 7 μg/ml or 2 μg/ml, respectively, in sterile PBS at 60 μl per well and incubated for 3 hours at RT or overnight at 4° C. Coated wells were washed with PBS plus 0.1% Tween-20 and patted semi-dry before blocking using complete media for at least 1 hour before use. Purified mouse collagen type II (Chrondrex, Redmond, Wash.), type I (Chrondrex, Redmond, Wash.) or third party control chicken ovalbumin (OVA) (Sigma, St. Louis, Mo.) were used to challenge 1 million processed splenocytes per well at 10 μg/ml of total antigen concentration. Media alone were used as background controls, OVA as third party controls and PMA plus Ionomycin as positive controls for IFNγ and IL-4 release by Th1 and Th2 cells, respectively.

panel of 402 kinases = assay: Kinome binding assays, selectivity panel; conditions: test concentration 1 μM
[5] = paw, 10 mg/kg p.o., read-out: concentration in paw
[6] = paw, 30 mg/kg p.o., read-out: concentration in paw
[7] = paw, 55 mg/kg p.o., read-out: concentration in paw
[8] = plasma, 10 mg/kg p.o., read-out: concentration in plasma
[9] = plasma, 30 mg/kg p.o., read-out: concentration in plasma
[10] = plasma, 55 mg/kg p.o., read-out: concentration in plasma
[11] = spleen, 10 mg/kg p.o., read-out: concentration in spleen
[12] = spleen, 30 mg/kg p.o., read-out: concentration in spleen
[13] = spleen, 55 mg/kg p.o., read-out: concentration in spleen

body mass (CIA model, body mass): did not significantly change
concentration at 2 h [1, 5]: 214 ± 12.4 ng/mL
concentration at 6 h [1, 5]: 172 ± 48.7 ng/mL
concentration at 2 h [1, 6]: 508 ± 213 ng/mL
concentration at 6 h [1, 6]: 376 ± 84.7 ng/mL
concentration at 2 h [1, 7]: 660 ± 81.1 ng/mL
concentration at 6 h [1, 7]: 472 ± 74.3 ng/mL
concentration at 2 h [1, 8]: 1160 ± 48.1 ng/mL
concentration at 6 h [1, 8]: 433 ± 56.7 ng/mL
concentration at 2 h [1, 9]: 2040 ± 693 ng/mL
concentration at 6 h [1, 9]: 1310 ± 258 ng/mL
concentration at 2 h [1, 10]: 3160 ± 456 ng/mL
concentration at 6 h [1, 10]: 1480 ± 138 ng/mL
concentration at 2 h [1, 11]: 673 ± 102 ng/mL
concentration at 6 h [1, 11]: 273 ± 50.4 ng/mL
concentration at 2 h [1, 12]: 1330 ± 113 ng/mL
concentration at 6 h [1, 12]: 1170 ± 395 ng/mL
concentration at 2 h [1, 13]: 3900 ± 427 ng/mL
concentration at 6 h [1, 13]: 2350 ± 433 ng/mL
share of the panel inhibited by >90% (panel of 402 kinases; 402 kinases): 9%
share of the panel inhibited by >99% (panel of 402 kinases; 402 kinases): 1%
selectivity score S(90)402 (panel of 402 kinases; score of Karaman et al): 0.09
selectivity score S(99)402 (panel of 402 kinases; score of Karaman et al): 0.01
SMILES: CN1CCN(c2cccc(Nc3nc4c(-c5ccc(S(C)(=O)=O)cc5)cccn4n3)c2)CC1 [Compound A, [8-(4-Methanesulfonyl-phenyl)-[1,2,4]triazolo[1,5-a]pyridin-2-yl]-[3-(4-methyl-piperazin-1-yl)-phenyl]-amine]
activity against pSTAT3 (pSTAT3): exhibited some activity against pSTAT3
paw IL-6 concentration ([2]; CAIA experiment, 4 hours post dosing, p<0.05): reduction in paw IL-6
level of pro-inflammatory cytokines in paw extracts ([2]; CAIA, 55 mg/kg): significantly reduced the level of several of the cytokines
cytokine suppression over the study (IL-1β, IL-6, TNFα, IL-12) ([2]; CAIA, 55 mg/kg, p<0.01 vs vehicle): lowered and sustained cytokine suppression for the remainder of the study
level of pro-inflammatory cytokines in paw extracts ([2]; CAIA, 100 mg/kg): significantly reduced the level of several of the cytokines
dose dependence of cytokine reduction in paw extracts ([2]; CAIA, 30, 55 and 100 mg/kg, especially GM-CSF, IL-12, IL-2, IL-4): Dose-dependent reductions were observed for all cytokines tested
paw cytokine expression compared with Dex group ([2]; CAIA, several of the cytokines tested, p<0.05 vs vehicle): significantly decreased cytokine expression below the levels observed in the Dex treatment group
reduction in paw pSTAT3 compared with Dex (phospho-STAT3; 30 mg/kg b.i.d., p<0.01 vs vehicle): significantly greater than that of Dex
reduction in paw pSTAT3 compared with Dex (phospho-STAT3; 55 mg/kg b.i.d., p<0.001 vs vehicle): significantly greater than that of Dex
phospho-STAT3 levels in the paw (phospho-STAT3; 2 hours after administration): nearly abolished
phospho-STAT3 levels in the paw (phospho-STAT3; 6 hours post-administration): only slowly began to recover
paw pSTAT3 expression, remainder of the experiment (phospho-STAT3; b.i.d. treatment): reduced pSTAT3 expression to the lower limits of the assay
histological protection of the tarsus ([3]; 55 mg/kg): provided protection in the tarsus
histopathology scores, significance versus vehicle ([3]; 55 mg/kg, p<0.05): Significance was only observed for the degree of inflammation
histological protection of carpus and tarsus ([3]; 100 mg/kg): provided the best protection for both regions
histological protection of the tarsus ([3]; 100 mg/kg): provided protection in the tarsus
histopathology scores, significance versus vehicle ([3]; 100 mg/kg, p<0.01): Significance was only observed for the degree of inflammation
frequency of CB11-specific, IFNγ secreting T cells ([4]; 55 mg/kg b.i.d. p.o.): significant reduction in the frequency of CB11-specific, IFNγ secreting T cells
frequency of CB11-specific, IFNγ secreting T cells ([4]; 100 mg/kg b.i.d. p.o.): significant reduction in the frequency of CB11-specific, IFNγ secreting T cells
